ChEMBL document CHEMBL2380196, “New anticancer active and selective phenylene-bisbenzothiazoles: synthesis, antiproliferative evaluation and DNA binding” (Eur J Med Chem, 2013)
Activity calls are given as the source filed them. No cut-off for these calls is given here.

Columns and labels:
[1] = biological target: T1, DNA topoisomerase 1 (Homo sapiens) (UniProt P11387); test: Inhibition of human topoisomerase 1-mediated supercoiled pUC19 DNA relaxation assessed as formation of open circle form after 45 mins using ethidium bromide staining by agarose gel electrophoresis
T1 sequence (whole entry): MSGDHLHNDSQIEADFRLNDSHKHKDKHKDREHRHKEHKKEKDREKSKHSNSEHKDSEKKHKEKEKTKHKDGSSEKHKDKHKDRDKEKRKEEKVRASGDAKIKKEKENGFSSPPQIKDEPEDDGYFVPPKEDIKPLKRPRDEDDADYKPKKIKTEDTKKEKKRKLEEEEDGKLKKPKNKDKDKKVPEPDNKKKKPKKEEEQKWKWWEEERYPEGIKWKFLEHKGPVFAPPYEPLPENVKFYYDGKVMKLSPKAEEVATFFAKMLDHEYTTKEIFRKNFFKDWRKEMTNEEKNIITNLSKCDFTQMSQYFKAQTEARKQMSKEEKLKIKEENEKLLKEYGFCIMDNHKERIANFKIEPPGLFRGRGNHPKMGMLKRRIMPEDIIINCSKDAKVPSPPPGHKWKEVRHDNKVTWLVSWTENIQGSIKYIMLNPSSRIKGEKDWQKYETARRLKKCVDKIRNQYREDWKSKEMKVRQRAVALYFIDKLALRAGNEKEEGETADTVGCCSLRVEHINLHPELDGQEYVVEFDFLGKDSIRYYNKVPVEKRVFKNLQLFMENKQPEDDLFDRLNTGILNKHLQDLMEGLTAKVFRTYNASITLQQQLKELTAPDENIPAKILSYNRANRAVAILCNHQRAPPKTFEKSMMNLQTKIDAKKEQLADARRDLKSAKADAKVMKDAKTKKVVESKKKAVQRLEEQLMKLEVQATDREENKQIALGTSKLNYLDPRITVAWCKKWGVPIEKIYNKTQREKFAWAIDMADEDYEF

HeLa = test: Cell cycle arrest in human HeLa cells assessed as accumulation in S phase after 24 hrs using propidium iodide staining by flow cytometry; type: functional, cell-based
SW-620 [2] = test: Induction of apoptosis in human SW620 cells at 10 uM after 48 hrs using propidium iodide/Annexin-V staining by flow cytometry relative to control; type: functional
SW-620 [3] = test: Cell cycle arrest in human SW620 cells assessed as accumulation in S phase at 10 uM after 48 hrs using propidium iodide staining by flow cytometry relative to control; type: functional
SW-620 [4] = test: Cell cycle arrest in human SW620 cells assessed as accumulation in sub-G1 phase at 10 uM after 48 hrs using propidium iodide staining by flow cytometry relative to control; type: functional
SW-620 [5] = test: Cell cycle arrest in human SW620 cells assessed as accumulation in G1 phase at 5 uM after 48 hrs using propidium iodide staining by flow cytometry relative to control; type: functional
SW-620 [6] = test: Cell cycle arrest in human SW620 cells assessed as accumulation in sub-G1 phase at 5 uM after 48 hrs using propidium iodide staining by flow cytometry relative to control; type: functional
SW-620 [7] = test: Cell cycle arrest in human SW620 cells assessed as accumulation in G1 phase at 10 uM after 24 hrs using propidium iodide staining by flow cytometry relative to control; type: functional
SW-620 [8] = test: Cell cycle arrest in human SW620 cells assessed as accumulation in G2/M phase at 5 uM after 24 hrs using propidium iodide staining by flow cytometry relative to control; type: functional
SW-620 [9] = test: Cell cycle arrest in human SW620 cells assessed as accumulation in S phase at 5 uM after 24 hrs using propidium iodide staining by flow cytometry relative to control; type: functional
SW-620 [10] = test: Cell cycle arrest in human SW620 cells assessed as accumulation in sub-G1 phase at 5 uM after 24 hrs using propidium iodide staining by flow cytometry relative to control; type: functional
[11] = biological target: T1, DNA topoisomerase 1 (Homo sapiens); test: Inhibition of human topoisomerase 1-mediated supercoiled pUC19 DNA relaxation at 1 to 50 uM after 45 mins by agarose gel electrophoresis

Compound	inhibition [1]	Activity (HeLa)	Activity (SW-620 [2]) [%]	Activity (SW-620 [3]) [%]	Activity (SW-620 [4]) [%]	Activity (SW-620 [5]) [%]	Activity (SW-620 [6]) [%]	Activity (SW-620 [7]) [%]	Activity (SW-620 [8]) [%]	Activity (SW-620 [9]) [%]	Activity (SW-620 [10]) [%]	inhibition [11]
Cl.Cl.c1cc(-c2nc3ccc(C4=NCCN4)cc3s2)cc(-c2nc3ccc(C4=NCCN4)cc3s2)c1	Active	Dose-dependent effect	95	69.6	13.6	36.7	24.8	29.9	15.5	46.6	13.5	–
Cl.Cl.c1cc2nc(-c3ccc(-c4nc5ccc(C6=NCCN6)cc5s4)cc3)sc2cc1C1=NCCN1	–	–	–	–	–	–	–	–	–	–	–	Active
